Reference: paper PMC12102759 (Protein Science : A Publication of the Protein Society, 2025)

Tested on: G3BP1 NFT2
Assay type: binding, human
Conditions: library DMS-BM; bait G3BP1 NFT2; prey CAPRIN1; AQMQGPYNFIQDSM(averaged): mean of the two overlapping peptides over the shared positions

| Substance | DMS position-specific score (PSSM value) per amino-acid substitution, averaged |
| --- | --- |
| AQMQGPYNFIQDSM(averaged) P6G (AQMQGGYNFIQDSM) | 0.006371 |
| AQMQGPYNFIQDSM(averaged) P6Y (AQMQGYYNFIQDSM) | 0.1155 |
| AQMQGPYNFIQDSM(averaged) N8A (AQMQGPYAFIQDSM) | 0.06427 |
| AQMQGPYNFIQDSM(averaged) N8W (AQMQGPYWFIQDSM) | 0.1126 |
| AQMQGPYNFIQDSM(averaged) M3F (AQFQGPYNFIQDSM) | 0.0581 |
| AQMQGPYNFIQDSM(averaged) Y7V (AQMQGPVNFIQDSM) | 0.02381 |
| AQMQGPYNFIQDSM(averaged) D12K (AQMQGPYNFIQKSM) | 0.003093 |
| AQMQGPYNFIQDSM(averaged) D12L (AQMQGPYNFIQLSM) | 0.008174 |
| AQMQGPYNFIQDSM(averaged) Q4L (AQMLGPYNFIQDSM) | 0.003961 |
| AQMQGPYNFIQDSM(averaged) I10E (AQMQGPYNFEQDSM) | 0.0004486 |
| AQMQGPYNFIQDSM(averaged) N8Y (AQMQGPYYFIQDSM) | 0.0098 |
| AQMQGPYNFIQDSM(averaged) Y7M (AQMQGPMNFIQDSM) | 0.001832 |
| AQMQGPYNFIQDSM(averaged) N8G (AQMQGPYGFIQDSM) | 0.001288 |
| AQMQGPYNFIQDSM(averaged) P6L (AQMQGLYNFIQDSM) | 0.02822 |
| AQMQGPYNFIQDSM(averaged) Q11D (AQMQGPYNFIDDSM) | 0 |
| AQMQGPYNFIQDSM(averaged) Q4F (AQMFGPYNFIQDSM) | 0.01567 |
| AQMQGPYNFIQDSM(averaged) G5F (AQMQFPYNFIQDSM) | 0.2345 |
| AQMQGPYNFIQDSM(averaged) G5M (AQMQMPYNFIQDSM) | 0.1116 |
| AQMQGPYNFIQDSM(averaged) F9T (AQMQGPYNTIQDSM) | 0 |
| AQMQGPYNFIQDSM(averaged) Q2P (APMQGPYNFIQDSM) | 0.007875 |
| AQMQGPYNFIQDSM(averaged) M3G (AQGQGPYNFIQDSM) | 0.02919 |
| AQMQGPYNFIQDSM(averaged) Q2I (AIMQGPYNFIQDSM) | 0.05266 |
| AQMQGPYNFIQDSM(averaged) M14H (AQMQGPYNFIQDSH) | 0.004419 |
| AQMQGPYNFIQDSM(averaged) M14E (AQMQGPYNFIQDSE) | 0.2115 |
| AQMQGPYNFIQDSM(averaged) Q11P (AQMQGPYNFIPDSM) | 0 |
| AQMQGPYNFIQDSM(averaged) Q4I (AQMIGPYNFIQDSM) | 0.04808 |
| AQMQGPYNFIQDSM(averaged) I10D (AQMQGPYNFDQDSM) | 0 |

| Substance | DMS position-specific score (PSSM value) per amino-acid substitution, averaged |
| --- | --- |
| AQMQGPYNFIQDSM(averaged) N8L (AQMQGPYLFIQDSM) | 0.06185 |
| AQMQGPYNFIQDSM(averaged) D12Q (AQMQGPYNFIQQSM) | 0.008788 |
| AQMQGPYNFIQDSM(averaged) Q2G (AGMQGPYNFIQDSM) | 0.001251 |
| AQMQGPYNFIQDSM(averaged) N8T (AQMQGPYTFIQDSM) | 0.1728 |
| AQMQGPYNFIQDSM(averaged) Q2N (ANMQGPYNFIQDSM) | 0.006268 |
| AQMQGPYNFIQDSM(averaged) M3Y (AQYQGPYNFIQDSM) | 0.01355 |
| AQMQGPYNFIQDSM(averaged) N8K (AQMQGPYKFIQDSM) | 0.007096 |
| AQMQGPYNFIQDSM(averaged) S13N (AQMQGPYNFIQDNM) | 0.02537 |
| AQMQGPYNFIQDSM(averaged) P6V (AQMQGVYNFIQDSM) | 0.006564 |
| AQMQGPYNFIQDSM(averaged) Q2R (ARMQGPYNFIQDSM) | 0.001052 |
| AQMQGPYNFIQDSM(averaged) F9N (AQMQGPYNNIQDSM) | 0 |
| AQMQGPYNFIQDSM(averaged) F9I (AQMQGPYNIIQDSM) | 0 |
| AQMQGPYNFIQDSM(averaged) F9G (AQMQGPYNGIQDSM) | 0.0001993 |
| AQMQGPYNFIQDSM(averaged) M14L (AQMQGPYNFIQDSL) | 0.006578 |
| AQMQGPYNFIQDSM(averaged) Q4T (AQMTGPYNFIQDSM) | 0.0001371 |
| AQMQGPYNFIQDSM(averaged) P6R (AQMQGRYNFIQDSM) | 0.01834 |
| AQMQGPYNFIQDSM(averaged) P6I (AQMQGIYNFIQDSM) | 0.007006 |
| AQMQGPYNFIQDSM(averaged) M14W (AQMQGPYNFIQDSW) | 0.06336 |
| AQMQGPYNFIQDSM(averaged) P6N (AQMQGNYNFIQDSM) | 0.03046 |
| AQMQGPYNFIQDSM(averaged) S13Y (AQMQGPYNFIQDYM) | 0.0135 |
| AQMQGPYNFIQDSM(averaged) I10S (AQMQGPYNFSQDSM) | 0.0008082 |
| AQMQGPYNFIQDSM(averaged) P6S (AQMQGSYNFIQDSM) | 0.00881 |
| AQMQGPYNFIQDSM(averaged) M14T (AQMQGPYNFIQDST) | 0.005834 |
| AQMQGPYNFIQDSM(averaged) Q4S (AQMSGPYNFIQDSM) | 0.003246 |
| AQMQGPYNFIQDSM(averaged) I10Y (AQMQGPYNFYQDSM) | 0.003704 |
| AQMQGPYNFIQDSM(averaged) I10R (AQMQGPYNFRQDSM) | 0.001261 |
| AQMQGPYNFIQDSM(averaged) M3T (AQTQGPYNFIQDSM) | 0.05572 |

| Substance | DMS position-specific score (PSSM value) per amino-acid substitution, averaged |
| --- | --- |
| AQMQGPYNFIQDSM(averaged) G5T (AQMQTPYNFIQDSM) | 0.007904 |
| AQMQGPYNFIQDSM(averaged) S13S | 0.5152 |
| AQMQGPYNFIQDSM(averaged) G5I (AQMQIPYNFIQDSM) | 0.01217 |
| AQMQGPYNFIQDSM(averaged) A1K (KQMQGPYNFIQDSM) | 0.0005059 |
| AQMQGPYNFIQDSM(averaged) M3I (AQIQGPYNFIQDSM) | 0.03359 |
| AQMQGPYNFIQDSM(averaged) I10G (AQMQGPYNFGQDSM) | 0.004165 |
| AQMQGPYNFIQDSM(averaged) G5N (AQMQNPYNFIQDSM) | 0.002472 |
| AQMQGPYNFIQDSM(averaged) F9P (AQMQGPYNPIQDSM) | 0 |
| AQMQGPYNFIQDSM(averaged) G5R (AQMQRPYNFIQDSM) | 0.0001509 |
| AQMQGPYNFIQDSM(averaged) G5W (AQMQWPYNFIQDSM) | 0.033 |
| AQMQGPYNFIQDSM(averaged) M14S (AQMQGPYNFIQDSS) | 0.001956 |
| AQMQGPYNFIQDSM(averaged) Q11H (AQMQGPYNFIHDSM) | 0.008689 |
| AQMQGPYNFIQDSM(averaged) Q11E (AQMQGPYNFIEDSM) | 0 |
| AQMQGPYNFIQDSM(averaged) S13F (AQMQGPYNFIQDFM) | 0.05713 |
| AQMQGPYNFIQDSM(averaged) I10H (AQMQGPYNFHQDSM) | 0.003149 |
| AQMQGPYNFIQDSM(averaged) N8H (AQMQGPYHFIQDSM) | 0.02395 |
| AQMQGPYNFIQDSM(averaged) Q4M (AQMMGPYNFIQDSM) | 0.02121 |
| AQMQGPYNFIQDSM(averaged) M14A (AQMQGPYNFIQDSA) | 0.06493 |
| AQMQGPYNFIQDSM(averaged) Q11N (AQMQGPYNFINDSM) | 0.05691 |
| AQMQGPYNFIQDSM(averaged) M14Q (AQMQGPYNFIQDSQ) | 0.06683 |
| AQMQGPYNFIQDSM(averaged) Y7Y | 0.5479 |
| AQMQGPYNFIQDSM(averaged) Q2T (ATMQGPYNFIQDSM) | 0.03322 |
| AQMQGPYNFIQDSM(averaged) Q11Y (AQMQGPYNFIYDSM) | 0.0642 |
| AQMQGPYNFIQDSM(averaged) A1R (RQMQGPYNFIQDSM) | 0.004419 |
| AQMQGPYNFIQDSM(averaged) Q2K (AKMQGPYNFIQDSM) | 0.006084 |
